Here are results for eleven compounds from patent US8546438B2, “Substituted (thiophenyl-carbonyl)imidazolidinones, and use thereof” (priority 2008, dated 2013).

Molecules are shown by their SMILES.

Assay [1] has as its target T1, reverse transcriptase (Human immunodeficiency virus type 1 group M subtype B, UniProt P04585).
T1 construct: negative control (mixture without reverse transcriptase); purchased Roche Diagnostics GmbH, Mannheim, Germany
As to the kind of experiment: Biochemical reverse transcriptase assay (Reverse Transcriptase Assay, colorimetric, Roche). The following applies: read-out: IC50(nM) RT assay. How it is done:
The “Reverse Transcriptase Assay, colorimetric” (Roche Diagnostics GmbH, Mannheim, Germany) is used in accordance with the manufacturer's information. The test substances are dissolved in DMSO and are used in the test diluted in 5-fold steps (final DMSO concentration 1%). The resulting values of the photometric evaluation (405/492 nm) are less than 0.1 for the negative control (mixture without reverse transcriptase) and are in the region of 1.5 for the positive control (mixture without test substance). The IC50 values of the test substances are determined as the concentration of the test substance dilution at which the measured optical density is 50% of the positive control.

In assay [2] the test system is HIV-1NL4-3 K103N-Y181C. Description: Light assay with inhibitor-resistant HI reporter virus in MT4 7F2 cells. It is filed as cell-based. The following applies: Human immunodeficiency virus 1, read-out: EC50(nM) MT4 7F2 cells HIV-1NL4-3 K103N-Y181C 2% FCS. How it is done:
(§1) For the mixture for a 96-well MTP, 3 million MT4 7F2 cells are pelleted, suspended in 1 ml of RPMI 1640 medium without phenol red (Invitrogen, Karlsruhe, Germany)/10% FCS/10% AIM-V (Invitrogen, Karlsruhe, Germany) and incubated together with a suitable amount of the corresponding HIV-1NL4-3 reporter virus at 37° C. for 2 hours (pellet infection). Unadsorbed viruses are subsequently washed out with PBS, and the infected cells are pelleted again and suspended in 8 ml of RPMI 1640 medium without phenol red/2% or 10% FCS/10% AIM-V. 80 μl thereof are pipetted into each well of a white 96-well MTP with 20 μl of test substance in suitable dilution. To avoid edge effects, the wells on the edge of the MTP are not used for substance dilutions. The second vertical row of the MTP contains only infected cells (virus control) and the eleventh vertical row only uninfected cells (cell control), in each case in RPMI 1640 medium without phenol red/2% or 10% FCS/10% AIM-V. The other wells of the MTP contain the compounds of the invention in various concentrations starting from the third vertical row, from which the test substances are diluted in 3-fold steps up to the tenth vertical row 3^7-fold. The test substances are dissolved in DMSO, whereby the final DMSO concentration in the test mixture is 1%. The test mixtures are incubated at 37° C./5% CO2 for five days and, after the addition of 15 μl of Lu164 substrate (5 mg/ml coelenterazine dissolved in 30 μM glutathione/DMSO, 100 mM NaCl, 1M MES, 100 mM glutathione), evaluated by luminometry. The resulting values are in the region of 1 000 000 RLUs (relative light units) for the virus control and 300 to 400 RLUs for the cell control. The EC50 values of the test substances are determined as the concentration at which the virus replication measured in RLUs is 50% of the untreated infected cells.

Assay [3] deals with HIV-1NL4-3 wt. As to the kind of experiment: Light assay with wild-type HI reporter virus in MT4 7F2 cells. It is filed as cell-based. The following applies: Human immunodeficiency virus 1, read-out: EC50(nM) MT4 7F2 cells HIV-1NL4-3 wt 2% FCS. How it is done:
as §1

The subject of assay [4] is HIV-1LAI. Description: H9 assay with wild-type HIV-1LAI (AlamarBlue, supernatant infection). It counts as cell-based. The following applies: Human immunodeficiency virus 1, H9 cells, 10% FCS. Here is the method:
For the mixture for a 96-well MTP, 3 million PBLs are pelleted, suspended in 1 ml of RPMI 1640 medium/10% FCS and incubated together with a suitable amount of HIV-1LAI (NIH AIDS Research & Reference Reagent Program, Germantown, USA) at 37° C. for 2 hours (pellet infection). Unadsorbed viruses are subsequently washed out with PBS, and the infected cells are pelleted again and suspended in 18 ml of RPMI 1640 medium/10% FCS/interleukin-2 (40 U/ml). 180 μl thereof are pipetted into each well of a white 96-well MTP with 20 μl of test substance in suitable dilution. Alternatively, after preparation of the substance dilutions in the MTP, the HIV is pipetted in together with the cells and is not washed out again (supernatant infection). In order to avoid edge effects, the wells at the edge of the MTP are not used for substance dilutions. The second vertical row of the MTP contains only infected cells (virus control) and the eleventh vertical row only uninfected cells (cell control), in each case in RPMI 1640 medium/10% FCS/interleukin-2 (40 U/ml). The other wells of the MTP contain the compounds of the invention in various concentrations starting from the third vertical row, from which the test substances are diluted in 3-fold steps up to the tenth vertical row 3^7-fold. The test substances are dissolved in DMSO, whereby the final DMSO concentration in the test mixture is 1%. The test mixtures are incubated at 37° C./5% CO2. After 5 and 7 days, 50 μl of cell-free supernatant are removed from each well to determine the amount of p24 present by means of a p24 ELISA (HIV-1 p24^CA Antigen Capture Assay Kit, NCI-Frederick Cancer Research and Development Center, Frederick, USA). From the resulting values of the photometric evaluation (450/620 nm) the EC50 values of the test substances are determined as the concentration at which the amount of p24 is 50% of the untreated infected cells.
Alternatively, H9 cells (ATCC, Wesel, Germany) are employed instead of PBLs for testing the test substances. H9 cells are incubated in RPMI 1640 medium with 2% or 10% FCS as a HIV-1LAI supernatant infection at 37° C./5% CO2, (20 μl of substance dilution and 80 μl of cells/virus per well) in accordance with the pattern described above for 5 days. Subsequently, 10 μl of AlamarBlue (Invitrogen, Karlsruhe, Germany) are added to each well, and the MTPs are incubated at 37° C. for 3 hours before the fluorimetric evaluation takes place (544/590 nm). The resulting values are about 40 000 for the untreated uninfected cells and about 7000 for the untreated infected cells. In the low concentration range, the EC50 values of the test substances are determined as the concentration at which the fluorescence is 50% of the untreated uninfected cells (in each case subtracting the values of the untreated infected cells). In addition, in the high concentration range, the CC50 values of the test substances are determined as the concentration at which the fluorescence is 50% of the untreated uninfected cells (in each case subtracting the values of the untreated infected cells).
Background: Resazurin is reduced to fluorescent resorufin, in cell work by metabolically active cells.

By IC50 is commonly meant the concentration that inhibits the measured activity by half. A word on the EC50: it is the concentration needed to bring the measured effect to its halfway point.

Turning to `N#Cc1cccc(-c2cc(C(=O)N3CNC(=O)C3)sc2-c2cccc(Cl)c2)c1` [Example 3, 3-{2-(3-Chlorophenyl)-5-[(4-oxoimidazolidin-1-yl)carbonyl]thiophen-3-yl}benzenecarbonitrile], in assay [1], the IC50 came out at 740 nM. Also, the results for the EC50 in assay [2], in assay [3] and in assay [4] were 100 nM, 5 nM and 71 nM, respectively.
In the case of `O=C1CN(C(=O)c2cc(-c3cccc(Cl)c3)c(-c3cccc(OC(F)(F)F)c3)s2)CN1` [Example 7, 1-({4-(3-Chlorophenyl)-5-[3-(trifluoromethoxy)phenyl]thiophen-2-yl}carbonyl)imidazolidin-4-one], the figures for the concentration for a half-maximal effect (EC50) in assay [2], in assay [3] and in assay [4] were 150 nM, 100 nM and 1410 nM, respectively.
For the compound `N#Cc1cc(F)cc(-c2sc(C(=O)N3CNC(=O)C3)cc2-c2cccc(Cl)c2)c1` [Example 11, 3-{3-(3-Chlorophenyl)-5-[(4-oxoimidazolidin-1-yl)carbonyl]thiophen-2-yl}-5-fluorobenzenecarbonitrile], the figures for the concentration giving a half-maximal response (EC50) in assay [2], in assay [3] and in assay [4] were 123 nM, 2 nM and 22 nM, respectively.
Regarding `N#Cc1cc(-c2cc(C(=O)N3CNC(=O)C3)sc2-c2cc(F)cc(Cl)c2)ccc1F` [Example 4, 5-{2-(3-Chloro-5-fluorophenyl)-5-[(4-oxoimidazolidin-1-yl)carbonyl]thiophen-3-yl}-2-fluorobenzenecarbonitrile], the concentration for a half-maximal effect (EC50) in assay [2] is 44 nM; in assay [3], less than 1.5 nM; in assay [4] it was 12 nM.
In the same order, the values of `N#Cc1cc(-c2sc(C(=O)N3CNC(=O)C3)cc2-c2cccc(Cl)c2)ccc1F` [Example 6, 5-{3-(3-Chlorophenyl)-5-[(4-oxoimidazolidin-1-yl)carbonyl]thiophen-2-yl}-2-fluorobenzenecarbonitrile] are 348 nM, 165 nM and 900 nM.
In the same order, the values of `N#Cc1cccc(-c2cc(C(=O)N3CNC(=O)C3)sc2-c2cc(F)cc(Cl)c2)c1` [Example 1, 3-{2-(3-Chloro-5-fluorophenyl)-5-[(4-oxoimidazolidin-1-yl)carbonyl]thiophen-3-yl}benzenecarbonitrile] are 45 nM, 1 nM and 9 nM.
Consider `O=C1CN(C(=O)c2cc(-c3ccc(F)c(Cl)c3)c(-c3cccc(Cl)c3)s2)CN1` [Example 9, 1-{[4-(3-Chloro-4-fluorophenyl)-5-(3-chlorophenyl)thiophen-2-yl]carbonyl}imidazolidin-4-one], for which the concentration giving a half-maximal response (EC50) in assay [2] was 260 nM; in assay [3], 35 nM; in assay [4], 593 nM.
Consider `N#Cc1cc(-c2cc(C(=O)N3CNC(=O)C3)sc2-c2cccc(Cl)c2)ccc1F` [Example 8, 5-{2-(3-Chlorophenyl)-5-[(4-oxoimidazolidin-1-yl)carbonyl]thiophen-3-yl}-2-fluorobenzenecarbonitrile], for which the EC50 came to 121 nM in assay [2], 5 nM in assay [3] and 103 nM in assay [4].
As for `O=C1CN(C(=O)c2cc(-c3cccc(Cl)c3)c(-c3cc(F)cc(Cl)c3)s2)CN1` [Example 5, 1-{[5-(3-Chloro-5-fluorophenyl)-4-(3-chlorophenyl)thiophen-2-yl]carbonyl}imidazolidin-4-one], the IC50 in assay [1] was found to be 2170 nM. In addition, the half-maximal effective concentration (EC50) worked out at 258 nM in assay [2], 21 nM in assay [3] and 85 nM in assay [4].
Taken in the same sequence, the figures for `O=C1CN(C(=O)c2cc(-c3ccc(F)c(Cl)c3)c(-c3cc(F)cc(Cl)c3)s2)CN1` [Example 2, 1-{[4-(3-Chloro-4-fluorophenyl)-5-(3-chloro-5-fluorophenyl)thiophen-2-yl]carbonyl}imidazolidin-4-one] were 920 nM, 176 nM, 20 nM and 68 nM.
As to `N#Cc1cc(F)cc(-c2sc(C(=O)N3CNC(=O)C3)cc2-c2ccc(F)c(Cl)c2)c1` [Example 10, 3-{3-(3-Chloro-4-fluorophenyl)-5-[(4-oxoimidazolidin-1-yl)carbonyl]thiophen-2-yl}-5-fluorobenzenecarbonitrile], the EC50 in assay [2] stood at 40 nM; in assay [3], 5 nM; in assay [4], 34 nM.
